Assay results from ChEMBL document CHEMBL5537157, “Selective Antitumor Effect and Lower Toxicity of Mitochondrion-Targeting Derivatization of Triptolide” (J Med Chem, 2024).
The source made the active and inactive calls. No cut-off for these calls is given here.

How the values were obtained:
[1] = Toxicity in zebrafish embryo assessed as liver development at 0.25 uM with replacement of new growth solution daily by fluorescence microscopy (reference value: 100.00 +/- 8.64 %); type: tissue-based, Danio rerio; settings: in vivo
[2] = Toxicity in zebrafish embryo assessed as death rate at 0.5 uM pretreated with compound followed by replacement of growth liquid by microscopy (reference value: 0.00 %); design: species or system Danio rerio; settings: in vivo, read-out: Activity
[3] = Toxicity in zebrafish embryo assessed as liver development at 0.5 uM with replacement of new growth solution daily by fluorescence microscopy (reference value: 100.00 +/- 8.64 %); type: tissue-based, Danio rerio; settings: in vivo
[4] = Toxicity in zebrafish embryo assessed as liver function at 0.5 uM with replacement of new growth solution daily by fluorescence microscopy (reference value: 100 +/- 8.89 %); type: tissue-based, Danio rerio; settings: in vivo
[5] = Drug accumulation in mitochondria of human NCI-H1975 cells at 10 uM incubated for 7 hrs by HPLC analysis; type: ADME; settings: nci-h1975, 7 h
[6] = Toxicity in zebrafish embryo assessed as damage effect in liver development at 0.25 uM with replacement of new growth solution daily by fluorescence microscopy relative to control; design: species or system Danio rerio; settings: in vivo
[7] = Renal toxicity in zebrafish assessed as yolk sac absorption at 0.5 to 4 uM treated at 3 hrs post-fertilization measured at 48 hrs post-compound treatment by FITC staining based microscopy; design: species or system Danio rerio; settings: in vivo, dose 0.5-4 µM
[8] = Toxicity in zebrafish embryo assessed as death rate at 4 uM pretreated with compound followed by replacement of growth liquid by microscopy (reference value: 2.22 +/- 3.84 %); design: species or system Danio rerio; settings: in vivo, read-out: Activity
[9] = Renal toxicity in zebrafish assessed as increase in TNF-alpha expression at 2 uM treated for 48 hrs by RT-qPCR analysis; design: species or system Danio rerio; settings: in vivo
[10] = Toxicity in zebrafish embryo assessed as damage effect in liver function at 0.5 uM with replacement of new growth solution daily by fluorescence microscopy relative to control; type: tissue-based, Danio rerio; settings: in vivo
[11] = Toxicity in zebrafish embryo assessed as death rate at 1 uM pretreated with compound followed by replacement of growth liquid by microscopy (reference value: 2.22 +/- 3.84 %); design: species or system Danio rerio; settings: in vivo, read-out: Activity
[12] = Toxicity in zebrafish embryo assessed as liver development at 1 uM with replacement of new growth solution daily by fluorescence microscopy (reference value: 100.00 +/- 8.64 %); type: tissue-based, Danio rerio; settings: in vivo
[13] = Renal toxicity in zebrafish assessed as increase in Kim1 expression at 2 uM treated for 48 hrs by RT-qPCR analysis; design: species or system Danio rerio; settings: in vivo
[14] = Developmental toxicity in zebrafish AB zygotes assessed as animal mortality at 4 uM treated at 6 hrs post-fertilization measured at 24 to 72 hrs post-fertilization; design: species or system Danio rerio; settings: in vivo, time 18-66 hrs
[15] = Teratogenic toxicity in zebrafish AB zygotes at 2 to 4 uM treated at 6 hrs post-fertilization measured at 24 to 72 hrs post-fertilization; design: species or system Danio rerio; settings: in vivo, dose lower 2 µM, time lower 18 hrs, dose upper 4 µM, time upper 66 hrs
NCI-H1975 [16] = assay: Induction of apoptosis in human NCI-H1975 cells at 50 to 400 nM incubated for 24 hrs by Annexin V-FITC/PI staining based flow cytometry; type: functional, cell-based; settings: dose 50-400 nM
[17] = Toxicity in zebrafish embryo assessed as damage effect in liver development at 0.5 uM with replacement of new growth solution daily by fluorescence microscopy relative to control; type: tissue-based, Danio rerio; settings: in vivo
[18] = Toxicity in zebrafish embryo assessed as degree of periocular edema at 0.5 uM pretreated with compound followed by replacement of growth liquid by microscopy (reference value: 0.00 %); design: species or system Danio rerio; settings: in vivo
[19] = Toxicity in zebrafish embryo assessed as death rate at 2 uM pretreated with compound followed by replacement of growth liquid by microscopy (reference value: 2.22 +/- 3.84 %); design: species or system Danio rerio; settings: in vivo, read-out: Activity
[20] = Toxicity in zebrafish embryo assessed as liver function at 2 uM with replacement of new growth solution daily by fluorescence microscopy (reference value: 100 +/- 8.89 %); type: tissue-based, Danio rerio; settings: in vivo
[21] = Toxicity in zebrafish embryo assessed as degree of periocular edema at 1 uM pretreated with compound followed by replacement of growth liquid by microscopy (reference value: 0.00 %); design: species or system Danio rerio; settings: in vivo
[22] = Toxicity in zebrafish embryo assessed as liver function at 0.25 uM with replacement of new growth solution daily by fluorescence microscopy (reference value: 100 +/- 8.89 %); type: tissue-based, Danio rerio; settings: in vivo
[23] = Drug accumulation in mitochondria of human NCI-H1975 cells at 600 nM incubated for 5 hrs by Red CMXRos probe based analysis; type: ADME; settings: nci-h1975, 5 h, 0.6 µM
[24] = Toxicity in zebrafish embryo assessed as degree of periocular edema at 2 uM pretreated with compound followed by replacement of growth liquid by microscopy (reference value: 0.00 %); design: species or system Danio rerio; settings: in vivo
[25] = Toxicity in zebrafish at 2 uM; design: species or system Danio rerio; settings: in vivo
[26] = Renal toxicity in zebrafish assessed as FITC dye residue at 2 uM treated for 24 hrs followed by dye treatment measured after 6 hrs by fluorescence microscopy; design: species or system Danio rerio; settings: in vivo, 30 h
[27] = Toxicity in zebrafish embryo assessed as damage effect in liver function at 0.25 uM with replacement of new growth solution daily by fluorescence microscopy relative to control; type: tissue-based, Danio rerio; settings: in vivo
A549 = assay: Cytotoxicity against human A549 cells assessed as inhibition of cell viability incubated for 48 hrs by MTT assay; type: functional, cell-based; settings: A549, 48 h
NCI-H1975 [28] = assay: Inhibition of cell migration in human NCI-H1975 cells at 2.5 to 5 nM incubated upto 72 hrs by scratch healing assay; type: functional, cell-based; settings: dose 2.5-5 nM
HepG2 = assay: Cytotoxicity against human HepG2 cells assessed as cell growth inhibition at 4.5 to 10 nM incubated for 48 hrs by MTT assay relative to control; type: functional; settings: dose 4.5-10 nM
[29] = Developmental toxicity in zebrafish AB zygotes assessed as decrease in body length at 0.25 to 4 uM treated at 6 hrs post-fertilization measured at 24 to 72 hrs post-fertilization; design: species or system Danio rerio; settings: in vivo, dose lower 0.25 µM, time lower 18 hrs, dose upper 4 µM, time upper 66 hrs
MCF7 = assay: Cytotoxicity against human MCF7 cells assessed as cell growth inhibition incubated for 48 hrs by MTT assay; type: functional, cell-based
PC-3 = assay: Cytotoxicity against human PC-3 cells assessed as cell growth inhibition at 4.5 to 10 nM incubated for 48 hrs by MTT assay relative to control; type: functional; settings: dose 4.5-10 nM
[30] = Developmental toxicity in zebrafish AB zygotes assessed as decrease in hatching rate at 1 to 4 uM treated at 6 hrs post-fertilization measured at 24 to 72 hrs post-fertilization; design: species or system Danio rerio; settings: in vivo, dose lower 1 µM, time lower 18 hrs, dose upper 4 µM, time upper 66 hrs
[31] = Teratogenic toxicity in zebrafish AB zygotes at 0.5 to 2 uM treated at 6 hrs post-fertilization measured at 24 to 72 hrs post-fertilization; design: species or system Danio rerio; settings: in vivo, dose lower 0.5 µM, time lower 18 hrs, dose upper 2 µM, time upper 66 hrs
NCI-H460 = assay: Cytotoxicity against human NCI-H460 cells assessed as cell growth inhibition at 4.5 to 10 nM incubated for 48 hrs by MTT assay relative to control; type: functional; settings: dose 4.5-10 nM

## CC(C)[C@]12O[C@H]1[C@@H]1O[C@]13[C@]1(O[C@H]1C[C@H]1C4=C(CC[C@@]13C)C(=O)OC4)[C@@H]2OC(=O)CCCCCCCC[n+]1ccc(/C=C/c2c[nH]c3ccccc23)cc1.[Br-]
[1]
  Activity: 95.17%
[2]
  mortality at 24 h, 0.5 µM: 2.22%
[3]
  Activity: 85%
[4]
  Activity: 51.53%
[5]
  Drug uptake: Active
[6]
  Activity: 4.83%
[7]
  Activity: Non-Toxic
[8]
  mortality at 4 µM: 11.1%
[9]
  Activity: Toxic
[10]
  Activity: 48.47%
[11]
  mortality at 1 µM: 6.67%
[12]
  Activity: 76.24%
[13]
  Activity: Toxic
[14]
  Activity: Non-Toxic
[15]
  Activity: Toxic
NCI-H1975 [16]
  Activity: Active
[17]
  Activity: 15.05%
[18]
  Activity: 2.22%
[19]
  mortality at 2 µM: 6.67%
[20]
  Activity: 20.04%
[21]
  Activity: 13.33%
[22]
  Activity: 61.46%
[23]
  Drug uptake: Active
[24]
  Activity: 33.33%
[25]
  Activity: Non-Toxic
[26]
  Activity: Toxic
[27]
  Activity: 38.54%
A549
  IC50: 46.1 µM
NCI-H1975 [28]
  inhibition: Active

## CC(C)[C@]12O[C@H]1[C@@H]1O[C@@]13[C@@]1(C)CCC4=C(COC4=O)[C@@H]1C[C@@H]1O[C@@]13C2=O [TRIPTONIDE]
[1]
  Activity: 87.8%
HepG2
  inhibition (INH): 80%
[2]
  mortality at 24 h, 0.5 µM: 2.22%
[3]
  Activity: 45.38%
[4]
  Activity: 23.09%
[5]
  Drug uptake: Active
[6]
  Activity: 12.2%
[29]
  Activity: Toxic
[8]
  mortality at 4 µM: 22.2%
MCF7
  inhibition: Dose-Dependent Effect
[10]
  Activity: 76.91%
[11]
  mortality at 1 µM: 11.1%
[14]
  Activity: Toxic
[17]
  Activity: 54.62%
[18]
  Activity: 6.67%
[19]
  mortality at 2 µM: 13.3%
PC-3
  Imax: ~60%
[21]
  Activity: 13.33%
[22]
  Activity: 50.55%
[30]
  Activity: Toxic
[24]
  Activity: 48.89%
[31]
  Activity: Toxic
[25]
  Activity: Toxic
NCI-H460
  Imax: ~40%
[27]
  Activity: 49.45%
NCI-H1975 [28]
  inhibition: Active
